The text below walks through data of US12698507B2, “Methods and compositions for conferring and/or enhancing herbicide tolerance using protoporphyrinogen IX oxidase of various cyanobacteria or variant thereof” (FarmHannong Co., Ltd., priority 2019, dated 2026).

In general, IC50 refers to the concentration at which inhibition is half-maximal.

Assay [1] addresses T1, Thermosynechococcus elongatus PKUAC-SCTE542 protoporphyrinogen IX oxidase CyPPO19, wild type, SEQ ID NO: 1 (MBP fusion) (Thermosynechococcus sichuanensis, UniProt A0A7D6JSC1).
T1 sequence (A0A7D6JSC1 1-467): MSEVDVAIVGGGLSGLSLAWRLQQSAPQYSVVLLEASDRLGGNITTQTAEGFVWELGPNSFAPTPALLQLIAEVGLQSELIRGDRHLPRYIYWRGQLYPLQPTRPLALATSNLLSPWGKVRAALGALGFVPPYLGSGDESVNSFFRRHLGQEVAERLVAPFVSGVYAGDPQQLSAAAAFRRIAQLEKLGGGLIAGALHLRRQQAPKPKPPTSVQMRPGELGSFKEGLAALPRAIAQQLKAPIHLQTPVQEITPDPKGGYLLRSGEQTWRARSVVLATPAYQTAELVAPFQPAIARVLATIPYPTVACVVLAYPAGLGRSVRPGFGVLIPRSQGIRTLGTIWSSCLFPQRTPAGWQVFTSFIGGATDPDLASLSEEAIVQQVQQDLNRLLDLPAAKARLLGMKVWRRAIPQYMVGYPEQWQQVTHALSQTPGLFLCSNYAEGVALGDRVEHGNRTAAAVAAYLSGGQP
Briefly: PPO enzyme inhibition assay (IC50 for herbicides), CyPPO19 wild type fused to MBP. The following applies: CyPPO19 WT; 50 μM protoporphyrinogen IX, pH 7.5, room temperature, 30 min; read-out: IC50. The class given is biochemical.

For assay [2], the system named is wild type A. thaliana (Col-0). In words: Herbicide injury of wild type A. thaliana (Col-0) after spraying. It is filed as in vivo, Arabidopsis thaliana. The following applies: 1 μM tiafenacil and 0.05% Silwet L-77, within 7 days.
Assay [3] deals with transgenic A. thaliana (T1) transformed with CyPPO19, CyPPO18 or variant genes. Briefly: Herbicide tolerance of transgenic A. thaliana (T1 plants). The following applies: 1 μM tiafenacil and 0.05% Silwet L-77. The class given is in vivo, Arabidopsis thaliana. The text has this:
Transgenic plants were screened with glufosinate tolerance which was conferred by Bar gene expression in the binary vector. […] They were, then, transplanted into soil and grown to obtain T1 plants.

Assay [4] has as its target Thermosynechococcus elongatus PKUAC-SCTE542 protoporphyrinogen IX oxidase CyPPO19 (SEQ ID NO: 1) variant R89A (MBP fusion) (Thermosynechococcus sichuanensis, UniProt A0A7D6JSC1, R89A). Briefly: biochemical.
The target in assay [5] is Thermosynechococcus elongatus PKUAC-SCTE542 protoporphyrinogen IX oxidase CyPPO19 (SEQ ID NO: 1) variant V165C (MBP fusion) (Thermosynechococcus sichuanensis, UniProt A0A7D6JSC1, V165C). In words: PPO enzyme inhibition assay (IC50 for herbicides), CyPPO19 V165C fused to MBP. It is filed as biochemical.
Thermosynechococcus elongatus PKUAC-SCTE542 protoporphyrinogen IX oxidase CyPPO19 (SEQ ID NO: 1) variant V165C (MBP fusion), sequence (A0A7D6JSC1 entry or part of it V165C): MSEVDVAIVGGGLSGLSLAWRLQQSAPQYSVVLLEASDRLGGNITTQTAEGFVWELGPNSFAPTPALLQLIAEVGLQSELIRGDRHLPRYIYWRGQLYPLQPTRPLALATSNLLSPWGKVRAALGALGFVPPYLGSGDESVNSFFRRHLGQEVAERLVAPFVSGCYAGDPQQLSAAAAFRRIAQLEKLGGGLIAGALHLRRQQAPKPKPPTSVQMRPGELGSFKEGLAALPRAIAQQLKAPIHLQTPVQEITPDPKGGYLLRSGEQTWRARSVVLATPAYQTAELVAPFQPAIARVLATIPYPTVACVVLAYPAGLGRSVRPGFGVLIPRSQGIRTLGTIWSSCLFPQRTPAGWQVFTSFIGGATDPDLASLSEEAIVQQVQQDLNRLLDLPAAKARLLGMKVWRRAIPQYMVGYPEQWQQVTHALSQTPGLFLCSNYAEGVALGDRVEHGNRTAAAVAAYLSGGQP
For assay [6], the target named is Thermosynechococcus elongatus PKUAC-SCTE542 protoporphyrinogen IX oxidase CyPPO19 (SEQ ID NO: 1) variant V165S (MBP fusion) (Thermosynechococcus sichuanensis, UniProt A0A7D6JSC1, V165S). In words: biochemical. Particulars: 50 μM protoporphyrinogen IX, pH 7.5, room temperature, 30 min, 10,000 means equivalent to or higher, read-out: IC50.
Thermosynechococcus elongatus PKUAC-SCTE542 protoporphyrinogen IX oxidase CyPPO19 (SEQ ID NO: 1) variant V165S (MBP fusion), sequence (A0A7D6JSC1 entry or part of it V165S): as the sequence (A0A7D6JSC1 entry or part of it V165C) above, with C165S counted along it
In assay [7] the target is Thermosynechococcus elongatus PKUAC-SCTE542 protoporphyrinogen IX oxidase CyPPO19 (SEQ ID NO: 1) variant A167C (MBP fusion) (Thermosynechococcus sichuanensis, UniProt A0A7D6JSC1, A167C). Briefly: biochemical.
Thermosynechococcus elongatus PKUAC-SCTE542 protoporphyrinogen IX oxidase CyPPO19 (SEQ ID NO: 1) variant A167C (MBP fusion), sequence (A0A7D6JSC1 entry or part of it A167C): as the sequence (A0A7D6JSC1 entry or part of it V165C) above, with C165V, A167C counted along it
In assay [8] the target is Thermosynechococcus elongatus PKUAC-SCTE542 protoporphyrinogen IX oxidase CyPPO19 (SEQ ID NO: 1) variant A167I (MBP fusion) (Thermosynechococcus sichuanensis, UniProt A0A7D6JSC1, A167I). In words: biochemical. Particulars: 50 μM protoporphyrinogen IX, pH 7.5, room temperature, 30 min, 10,000 means equivalent to or higher, read-out: IC50.
Thermosynechococcus elongatus PKUAC-SCTE542 protoporphyrinogen IX oxidase CyPPO19 (SEQ ID NO: 1) variant A167I (MBP fusion), sequence (A0A7D6JSC1 entry or part of it A167I): as the sequence (A0A7D6JSC1 entry or part of it V165C) above, with C165V, A167I counted along it
Assay [9] deals with Thermosynechococcus elongatus PKUAC-SCTE542 protoporphyrinogen IX oxidase CyPPO19 (SEQ ID NO: 1) variant A167L (MBP fusion) (Thermosynechococcus sichuanensis, UniProt A0A7D6JSC1, A167L). Briefly: biochemical. The following applies: 50 μM protoporphyrinogen IX, pH 7.5, room temperature, 30 min, 10,000 means equivalent to or higher, read-out: IC50.
Thermosynechococcus elongatus PKUAC-SCTE542 protoporphyrinogen IX oxidase CyPPO19 (SEQ ID NO: 1) variant A167L (MBP fusion), sequence (A0A7D6JSC1 entry or part of it A167L): as the sequence (A0A7D6JSC1 entry or part of it V165C) above, with C165V, A167L counted along it
Assay [10] has as its target Thermosynechococcus elongatus PKUAC-SCTE542 protoporphyrinogen IX oxidase CyPPO19 (SEQ ID NO: 1) variant V305M (MBP fusion) (Thermosynechococcus sichuanensis, UniProt A0A7D6JSC1, V305M). Briefly: PPO enzyme inhibition assay (IC50 for herbicides), CyPPO19 V305M fused to MBP. It is filed as biochemical.
The target in assay [11] is Thermosynechococcus elongatus PKUAC-SCTE542 protoporphyrinogen IX oxidase CyPPO19 (SEQ ID NO: 1) variant V305L (MBP fusion) (Thermosynechococcus sichuanensis, UniProt A0A7D6JSC1, V305L). In words: PPO enzyme inhibition assay (IC50 for herbicides), CyPPO19 V305L fused to MBP. The class given is biochemical.
Thermosynechococcus elongatus PKUAC-SCTE542 protoporphyrinogen IX oxidase CyPPO19 (SEQ ID NO: 1) variant V305L (MBP fusion), sequence (A0A7D6JSC1 entry or part of it V305L): as the sequence (A0A7D6JSC1 entry or part of it V165C) above, with C165V, V305L counted along it

Thermosynechococcus elongatus PKUAC-SCTE542 protoporphyrinogen IX oxidase CyPPO19 (SEQ ID NO: 1) variant V305M (MBP fusion), sequence (A0A7D6JSC1 entry or part of it V305M): as the sequence (A0A7D6JSC1 entry or part of it V165C) above, with C165V, V305M counted along it
Thermosynechococcus elongatus PKUAC-SCTE542 protoporphyrinogen IX oxidase CyPPO19 (SEQ ID NO: 1) variant R89A (MBP fusion), sequence (A0A7D6JSC1 entry or part of it R89A): as the sequence (A0A7D6JSC1 entry or part of it V165C) above, with R89A, C165V counted along it

On to `COC(=O)CCNC(=O)C(C)Sc1cc(-n2c(=O)cc(C(F)(F)F)n(C)c2=O)c(F)cc1Cl` (centres unmarked) [Tiafenacil], for which the half-maximal inhibitory concentration (IC50) in assay [1] was determined as 67 nM; in assay [4], 113 nM; in assay [5] it was 186 nM; in assay [6] it was 269 nM; in [7], 342 nM; in assay [8], 248 nM. In addition, the half-inhibitory concentration (IC50) was determined as 597 nM in assay [9], 392 nM in assay [10] and 1140 nM in [11]. Further, the results for the “survival after herbicide treatment” value in assay [2] and in assay [3] were “completely died within 7 days” and “survived”, respectively.
